In patent publication US6770597B2, “Benzohydrazide derivatives as herbicides and desiccant compositions containing them” (Ishihara Sangyo Kaisha, Ltd., priority 2002, dated 2004):

Key:
Type in all cases: in vivo
[1] = test system: field corn (Zea mays L., var. Dekalb 535, CORN); experiment: Greenhouse herbicide screen, pre-emerge application, crop damage rating; conditions: PRE emergent, 14 days after application, rating scale 0-100
Description: (§1) A standard greenhouse herbicide activity screening system was used to evaluate the herbicidal efficacy and crop safety of these test compounds. Seven broadleaf weed species including redroot pigweed (Amaranthus retrofiexus, AMARE), velvetleaf (Abutilon theophrasti, ABUTH), sicklepod (Cassia obtusifolia, CASOB), ivyleaf morningglory (Ipomoea hederacea, IPOHE), lambsquarters (Chenopodium album, CHEAL), common ragweed (Ambrosia artemisiifolia L., AMBEL), and cocklebur (Xanthium strumarium, XANST) were used as test species. Four grass weed species including green foxtail (Setaria viridis, SETVI), barnyardgrass (Echinochloa crus-galli, ECHCG), johnsongrass (Sorghum halepense, SORHA), and large crabgrass (Digitaria sanguinalis, DIGSA) were also used. In addition, four crop species, field corn (Zea mays L., var. Dekalb 535, CORN), soybean (Glycine max L., var. Pella 86, SOY), upland rice (Oryza sp., var.Cocodrie, RICE) and wheat (Triticum aestivum L.) were included.
(§2) All plants were grown in 10 cm square plastic pots which were filled with a sandy loam soil mix. For pre-emerge tests, seeds were planted one day prior to application of the test compounds. For post-emerge tests, seeds were planted 8-21 days prior to the test to allow emergence and good foliage development prior to application of the test substances. At the time of the post-emerge application, plants of all species were usually at the 2-3 leaf stage of development.
(§3) All test compounds were dissolved in acetone and applied to the test units in a volume of 187 l/ha. Test materials were applied at rates ranging from 15 g ai/ha to 1000 g ai/ha using a track sprayer equipped with a TJ8001E even flow flat fan spray nozzle. Plants were arranged on a shelf so that the top of the canopy (post-emerge) or top of the soil surface (pre-emerge) was 40-45 cm below the nozzle. Pressurized air was used to force the test solution through the nozzle as it was mechanically advanced (via electrically driven chain drive) over the top of all test plants/pots. This application simulates a typical commercial field herbicide application.
(§4) Pre-emergence tests were top watered immediately after treatment to incorporate the test materials, then routinely top-watered for normal growth. Post-emerge test units were always bottom-watered.
(§5) At 14 days after application of the test materials, phytotoxicity ratings were recorded. A rating scale of 0-100 was used as previously described in Research Methods in Weed Science, 2nd edition, B. Truelove, Ed., Southern Weed Science Society, Auburn University, Auburn, Ala., 1977. Briefly, “0” corresponds to no damage and “100” corresponds to complete death of all plants in the test unit. This scale was used both to determine efficacy against weed species and damage to crop species. Herbicide activity data for various compounds of this invention, which are shown by compound No. in Tables 1-12, are shown in Tables 13 and 14.

[2] = test system: upland rice (Oryza sp., var.Cocodrie, RICE); experiment: as above; conditions: PRE emergent, 14 days after application, rating scale 0-100
Description: as §1, §2, §3, §4, §5

[3] = test system: green foxtail (Setaria viridis, SETVI); experiment: Greenhouse herbicide screen, post-emerge application, phytotoxicity rating; conditions: POST emergent, 14 days after application, scale 0-100
Outline: (§6)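 Sown 1 d (pre) or 8–21 d (post) ahead; sprayed 15–1000 g ai/ha in acetone, 187 l/ha; nozzle 40–45 cm above canopy/soil; scored 0–100 at day 14.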

[4] = test system: lambsquarters (Chenopodium album, CHEAL); experiment: as above; conditions: POST emergent, 14 days after application, scale 0-100
Outline: as §6

[5] = test system: ivyleaf morningglory (Ipomoea hederacea, IPOHE); experiment: as above; conditions: POST emergent, 14 days after application, scale 0-100
Outline: as §6

[6] = test system: large crabgrass (Digitaria sanguinalis, DIGSA); experiment: as above; conditions: POST emergent, 14 days after application, scale 0-100
Outline: as §6

[7] = test system: barnyardgrass (Echinochloa crus-galli, ECHCG); experiment: as above; conditions: POST emergent, 14 days after application, scale 0-100
Outline: as §6

[8] = test system: sicklepod (Cassia obtusifolia, CASOB); experiment: as above; conditions: POST emergent, 14 days after application, scale 0-100
Outline: as §6

[9] = test system: johnsongrass (Sorghum halepense, SORHA); experiment: as above; conditions: POST emergent, 14 days after application, scale 0-100
Outline: as §6

[10] = test system: common ragweed (Ambrosia artemisiifolia L., AMBEL); experiment: as above; conditions: POST emergent, 14 days after application, scale 0-100
Outline: as §6

[11] = test system: cocklebur (Xanthium strumarium, XANST); experiment: as above; conditions: POST emergent, 14 days after application, scale 0-100
Outline: as §6

[12] = test system: redroot pigweed (Amaranthus retrofiexus, AMARE); experiment: as above; conditions: POST emergent, 14 days after application
Outline: as §6

[13] = test system: velvetleaf (Abutilon theophrasti, ABUTH); experiment: as above; conditions: POST emergent, 14 days after application, scale 0-100
Outline: as §6

[14] = test system: green foxtail (Setaria viridis, SETVI); experiment: Greenhouse herbicide screen, pre-emerge application, phytotoxicity rating; conditions: PRE emergent, 14 days after application, rating scale 0-100
Outline: as §6

[15] = test system: lambsquarters (Chenopodium album, CHEAL); experiment: as above; conditions: PRE emergent, 14 days after application, rating scale 0-100
Outline: as §6

[16] = test system: ivyleaf morningglory (Ipomoea hederacea, IPOHE); experiment: as above; conditions: PRE emergent, 14 days after application, rating scale 0-100
Outline: as §6

[17] = test system: large crabgrass (Digitaria sanguinalis, DIGSA); experiment: as above; conditions: PRE emergent, 14 days after application, rating scale 0-100
Outline: as §6

[18] = test system: barnyardgrass (Echinochloa crus-galli, ECHCG); experiment: as above; conditions: PRE emergent, 14 days after application, rating scale 0-100
Outline: as §6

[19] = test system: sicklepod (Cassia obtusifolia, CASOB); experiment: as above; conditions: PRE emergent, 14 days after application, rating scale 0-100
Outline: as §6

[20] = test system: johnsongrass (Sorghum halepense, SORHA); experiment: as above; conditions: PRE emergent, 14 days after application, rating scale 0-100
Outline: as §6

[21] = test system: common ragweed (Ambrosia artemisiifolia L., AMBEL); experiment: as above; conditions: PRE emergent, 14 days after application, rating scale 0-100
Outline: as §6

[22] = test system: cocklebur (Xanthium strumarium, XANST); experiment: as above; conditions: PRE emergent, 14 days after application, rating scale 0-100
Outline: as §6

[23] = test system: redroot pigweed (Amaranthus retrofiexus, AMARE); experiment: as above; conditions: PRE emergent, 14 days after application, rating scale 0-100
Outline: as §6

[24] = test system: velvetleaf (Abutilon theophrasti, ABUTH); experiment: as above; conditions: PRE emergent, 14 days after application, rating scale 0-100
Outline: as §6

[25] = test system: field corn (Zea mays L., var. Dekalb 535, CORN); experiment: Greenhouse herbicide screen, post-emerge application, crop damage rating; conditions: POST emergent, 14 days after application, scale 0-100
Description: as §1, §2, §3, §4, §5

[26] = test system: upland rice (Oryza sp., var.Cocodrie, RICE); experiment: as above; conditions: POST emergent, 14 days after application, scale 0-100
Description: as §1, §2, §3, §4, §5

CC1CCCC(C)N1NC(=O)c1cc(-n2c(=O)cc(C(F)(F)F)n(C)c2=O)c(F)cc1Cl (stereo not shown) [Compound 1-16]
crop damage rating CORN ([1]; 63 g ai/ha): 100
crop damage rating CORN ([1]; 250 g ai/ha): 100
crop damage rating RICE ([2]; 63 g ai/ha): 45
crop damage rating RICE ([2]; 250 g ai/ha): 98
phytotoxicity rating SETVI ([3]; 63 g ai/ha): 90
phytotoxicity rating SETVI ([3]; 250 g ai/ha): 99
phytotoxicity rating CHEAL ([4]; 63 g ai/ha): 100
phytotoxicity rating CHEAL ([4]; 250 g ai/ha): 100
phytotoxicity rating IPOHE ([5]; 63 g ai/ha): 100
phytotoxicity rating IPOHE ([5]; 250 g ai/ha): 100
phytotoxicity rating DIGSA ([6]; 63 g ai/ha): 30
phytotoxicity rating DIGSA ([6]; 250 g ai/ha): 98
phytotoxicity rating ECHCO ([7]; 63 g ai/ha): 35
phytotoxicity rating ECHCO ([7]; 250 g ai/ha): 98
phytotoxicity rating CASOB ([8]; 63 g ai/ha): 98
phytotoxicity rating CASOB ([8]; 250 g ai/ha): 99
phytotoxicity rating SORHA ([9]; 63 g ai/ha): 75
phytotoxicity rating SORHA ([9]; 250 g ai/ha): 99
phytotoxicity rating AMBEL ([10]; 63 g ai/ha): 99
phytotoxicity rating AMBEL ([10]; 250 g ai/ha): 99
phytotoxicity rating XANST ([11]; 63 g ai/ha): 75
phytotoxicity rating XANST ([11]; 250 g ai/ha): 100
phytotoxicity rating AMARE ([12]; 63 g ai/ha, scale 0-100 (0 no damage, 100 complete death)): 100
phytotoxicity rating AMARE ([12]; 250 g ai/ha, scale 0-100): 100
phytotoxicity rating ABUTH ([13]; 63 g ai/ha): 100
phytotoxicity rating ABUTH ([13]; 250 g ai/ha): 100
phytotoxicity rating SETVI ([14]; 63 g ai/ha): 90
phytotoxicity rating SETVI ([14]; 250 g ai/ha): 99
phytotoxicity rating CHEAL ([15]; 63 g ai/ha): 100
phytotoxicity rating CHEAL ([15]; 250 g ai/ha): 100
phytotoxicity rating IPOHE ([16]; 63 g ai/ha): 100
phytotoxicity rating IPOHE ([16]; 250 g ai/ha): 100
phytotoxicity rating DIGSA ([17]; 63 g ai/ha): 30
phytotoxicity rating DIGSA ([17]; 250 g ai/ha): 98
phytotoxicity rating ECHCG ([18]; 63 g ai/ha): 35
phytotoxicity rating ECHCG ([18]; 250 g ai/ha): 98
phytotoxicity rating CASOB ([19]; 63 g ai/ha): 98
phytotoxicity rating CASOB ([19]; 250 g ai/ha): 99
phytotoxicity rating SORHA ([20]; 63 g ai/ha): 75
phytotoxicity rating SORHA ([20]; 250 g ai/ha): 99
phytotoxicity rating AMBEL ([21]; 63 g ai/ha): 99
phytotoxicity rating AMBEL ([21]; 250 g ai/ha): 99
phytotoxicity rating XANST ([22]; 63 g ai/ha): 75
phytotoxicity rating XANST ([22]; 250 g ai/ha): 100
phytotoxicity rating AMARE ([23]; 63 g ai/ha): 100
phytotoxicity rating AMARE ([23]; 250 g ai/ha): 100
phytotoxicity rating ABUTH ([24]; 63 g ai/ha): 100
phytotoxicity rating ABUTH ([24]; 250 g ai/ha): 100
crop damage rating CORN ([25]; 63 g ai/ha): 100
crop damage rating CORN ([25]; 250 g ai/ha): 100
crop damage rating RICE ([26]; 63 g ai/ha): 45
crop damage rating RICE ([26]; 250 g ai/ha): 98
